Measurements as given in the supplement of paper PMC7017272.
± gives the standard deviation of the averaged measurements. Each block holds one compound with its values, some of them ahead of it.

Key:
Settings in all cases: treatment time: 3 days
UT-SCC-24A [1] = assay: relative IC50 (midpoint of the fitted curve; maximal inhibition may be below 50%); higher = less potent
Protocol: (§1)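 HNSCC cell lines (500 cells/well, 384-well) were cultured on plastic, on top of (2D) or embedded (3D) in Matrigel or human leiomyoma matrix Myogel (500 ug/mL; Myogel 3D mixed with rat collagen I). Cells were treated for 3 days with 5 ten-fold concentrations of each drug, and viability was read by CellTiter-Glo. Viability was normalised to DMSO (0% inhibition) and 100 uM benzethonium chloride (100% inhibition) controls and fitted with the FIMM DSRT pipeline to give IC50 (nM), maximal % inhibition and the drug sensitivity score (DSS). Suffixes _1/_2/_3 on drug names are replicates.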

UT-SCC-42A = assay: relative IC50 (midpoint of the fitted curve; maximal inhibition may be below 50%); higher = less potent
Procedure, shortened: (§2)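 Viability was read with CellTiter-Glo 2.0 luminescence and scaled against vehicle (0.1% DMSO) and cell-killing control wells. The assay used HPV-negative HNSCC cell lines at 500 cells/well in 384-well plates, grown on plastic, on Matrigel or Myogel coatings (500 µg/mL), or embedded in Matrigel or Myogel plus rat collagen I, and treated for 3 days at five 10-fold concentrations. IC50, maximal inhibition and drug sensitivity score were derived from percent-inhibition dose–response curves fitted in the FIMM pipeline.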

UT-SCC-14 [2] = assay: as above
Procedure, shortened: as §2

UT-SCC-40 = assay: as above
Procedure, shortened: as §2

UT-SCC-106A = assay: as above
Procedure, shortened: as §2

UT-SCC-81 = assay: as above
Procedure, shortened: as §2

UT-SCC-73 = assay: as above
Procedure, shortened: as §2

UT-SCC-28 = assay: as above
Procedure, shortened: as §2

UT-SCC-42B = assay: as above
Procedure, shortened: as §2

UT-SCC-44 = assay: as above
Procedure, shortened: as §2

UT-SCC-8 = assay: as above
Procedure, shortened: as §2

UT-SCC-24B [3] = assay: as above
Procedure, shortened: as §2

UT-SCC-14 [4] = assay: drug sensitivity score (DSS); higher = more sensitive; extreme values may be limits of the assay
Procedure, shortened: as §2

UT-SCC-24B [5] = assay: as above
Procedure, shortened: as §2

UT-SCC-24A [6] = assay: drug sensitivity score (DSS); higher = more sensitive
Protocol: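 HNSCC cell lines (500 cells/well, 384-well) were cultured on plastic, on top of (2D) or embedded (3D) in Matrigel or human leiomyoma matrix Myogel (500 ug/mL; Myogel 3D mixed with rat collagen I). Cells were treated for 3 days with 5 ten-fold concentrations of each drug, and viability was read by CellTiter-Glo. Suffixes _1/_2/_3 on drug names are replicates.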

UT-SCC-24A [7] = assay: maximal % inhibition of viability relative to DMSO; higher = stronger effect
Protocol: as §1

[8] = culture condition: embedded in Matrigel
[9] = culture condition: on top of Matrigel
[10] = culture condition: plastic 2D (no matrix)
[11] = culture condition: on top of Myogel
[12] = culture condition: embedded in Myogel + collagen I

- relative IC50 (UT-SCC-24A [1]; [8]): 8.03 nM
- relative IC50 (UT-SCC-24A [1]; [9]): 9.88 nM
- relative IC50 (UT-SCC-24A [1]; [10]): 12.8 nM
- relative IC50 (UT-SCC-42A; [8]): 28.9 nM
- relative IC50 (UT-SCC-42A; [9]): 11.4 nM
- relative IC50 (UT-SCC-42A; [11]): 21.2 nM
- relative IC50 (UT-SCC-42A; [10]): 19 nM
- relative IC50 (UT-SCC-14 [2]; [8]): 30.7 nM
- relative IC50 (UT-SCC-14 [2]; [9]): 39.6 nM
- relative IC50 (UT-SCC-14 [2]; [11]): 47.4 nM
- relative IC50 (UT-SCC-14 [2]; [10]): 40.8 nM
- relative IC50 (UT-SCC-40; [8]): 21.3 nM
- relative IC50 (UT-SCC-40; [9]): 24.2 nM
- relative IC50 (UT-SCC-40; [10]): 33.1 nM
- relative IC50 (UT-SCC-106A; [8]): 8.12 nM
- relative IC50 (UT-SCC-106A; [12]): > 989 nM
- relative IC50 (UT-SCC-106A; [9]): 7.76 nM
- relative IC50 (UT-SCC-106A; [10]): 11.7 nM
- relative IC50 (UT-SCC-81; [8]): 6.81 nM
- relative IC50 (UT-SCC-81; [9]): 15.3 nM
- relative IC50 (UT-SCC-81; [10]): 35.7 nM
- relative IC50 (UT-SCC-73; [8]): 32 nM
- relative IC50 (UT-SCC-28; [8]): > 989 nM
- relative IC50 (UT-SCC-28; [12]): > 989 nM
- relative IC50 (UT-SCC-42B; [8]): 17.3 nM
- relative IC50 (UT-SCC-42B; [9]): 17.7 nM
- relative IC50 (UT-SCC-42B; [10]): 27.5 nM
- relative IC50 (UT-SCC-44; [12]): > 989 nM
- relative IC50 (UT-SCC-44; [10]): > 989 nM
- relative IC50 (UT-SCC-8; [8]): 19.7 nM
- relative IC50 (UT-SCC-8; [9]): 21 nM
- relative IC50 (UT-SCC-8; [10]): 21.6 nM
- relative IC50 (UT-SCC-24B [3]; [8]): 31.2 nM
- relative IC50 (UT-SCC-24B [3]; [9]): 23 nM
- relative IC50 (UT-SCC-24B [3]; [10]): 12.7 nM
Compound: CN(C)C/C=C/C(=O)Nc1cc2c(Nc3ccc(F)c(Cl)c3)ncnc2cc1O[C@H]1CCOC1 [Afatinib]
- drug sensitivity score (UT-SCC-14 [4]; [8]): 13.8 ± 3 DSS
- drug sensitivity score (UT-SCC-14 [4]; [12]): 9.3 ± 6.4 DSS
- drug sensitivity score (UT-SCC-14 [4]; [9]): 12.5 ± 1.4 DSS
- drug sensitivity score (UT-SCC-14 [4]; [11]): 7.33 ± 3.8 DSS
- drug sensitivity score (UT-SCC-14 [4]; [10]): 12.1 ± 4.1 DSS
- drug sensitivity score (UT-SCC-24B [5]; [8]): 11.4 ± 0.72 DSS
- drug sensitivity score (UT-SCC-24B [5]; [12]): 4.57 ± 0.58 DSS
- drug sensitivity score (UT-SCC-24B [5]; [9]): 10.9 ± 0.96 DSS
- drug sensitivity score (UT-SCC-24B [5]; [11]): 2.3 ± 0.7 DSS
- drug sensitivity score (UT-SCC-24B [5]; [10]): 16.1 ± 0.56 DSS
- drug sensitivity score (UT-SCC-24A [6]; [8]): 20.6 ± 3.3 DSS
- drug sensitivity score (UT-SCC-24A [6]; [12]): 8.9 ± 5.3 DSS
- drug sensitivity score (UT-SCC-24A [6]; [9]): 16.6 ± 2.1 DSS
- drug sensitivity score (UT-SCC-24A [6]; [11]): 2.93 ± 2.1 DSS
- drug sensitivity score (UT-SCC-24A [6]; [10]): 15.6 ± 3.1 DSS
- maximal % inhibition of viability (UT-SCC-24A [7]; [8]): 79.9 ± 1.1%
- maximal % inhibition of viability (UT-SCC-24A [7]; [12]): 38.8 ± 2.3%
- maximal % inhibition of viability (UT-SCC-24A [7]; [9]): 68.23 ± 0.59%
- maximal % inhibition of viability (UT-SCC-24A [7]; [11]): 20.3 ± 3.7%
- maximal % inhibition of viability (UT-SCC-24A [7]; [10]): 67.1 ± 4%

- relative IC50 (UT-SCC-24A [1]; [8]): 1.4 nM
- relative IC50 (UT-SCC-24A [1]; [9]): 1.34 nM
- relative IC50 (UT-SCC-24A [1]; [10]): 1.07 nM
- relative IC50 (UT-SCC-42A; [9]): 3.65 nM
- relative IC50 (UT-SCC-14 [2]; [8]): 3.5 nM
- relative IC50 (UT-SCC-14 [2]; [9]): 7.96 nM
- relative IC50 (UT-SCC-14 [2]; [10]): 17.5 nM
- relative IC50 (UT-SCC-40; [9]): 3.55 nM
- relative IC50 (UT-SCC-40; [11]): 4.8 nM
- relative IC50 (UT-SCC-106A; [8]): 0.942 nM
- relative IC50 (UT-SCC-106A; [9]): 1.25 nM
- relative IC50 (UT-SCC-106A; [10]): 1.5 nM
- relative IC50 (UT-SCC-81; [12]): 6.59 nM
- relative IC50 (UT-SCC-81; [10]): 7.02 nM
- relative IC50 (UT-SCC-73; [8]): 2.42 nM
- relative IC50 (UT-SCC-73; [11]): 3.31 nM
- relative IC50 (UT-SCC-28; [10]): 1.42 nM
- relative IC50 (UT-SCC-42B; [8]): 1.71 nM
- relative IC50 (UT-SCC-42B; [9]): 5.67 nM
- relative IC50 (UT-SCC-42B; [11]): 12.5 nM
- relative IC50 (UT-SCC-44; [8]): 1.55 nM
- relative IC50 (UT-SCC-44; [9]): 1.52 nM
- relative IC50 (UT-SCC-44; [10]): 1.46 nM
- relative IC50 (UT-SCC-8; [8]): 11.3 nM
- relative IC50 (UT-SCC-24B [3]; [8]): 9.83 nM
- relative IC50 (UT-SCC-24B [3]; [12]): 9.92 nM
- relative IC50 (UT-SCC-24B [3]; [9]): 11.6 nM
- relative IC50 (UT-SCC-24B [3]; [11]): 22.7 nM
- relative IC50 (UT-SCC-24B [3]; [10]): 7.62 nM
Compound: CC(=O)Nc1cccc(-n2c(=O)n(C3CC3)c(=O)c3c(Nc4ccc(I)cc4F)n(C)c(=O)c(C)c32)c1 [Trametinib]
- drug sensitivity score (UT-SCC-14 [4]; [8]): 9.3 ± 2.1 DSS
- drug sensitivity score (UT-SCC-14 [4]; [12]): 6.63 ± 3.8 DSS
- drug sensitivity score (UT-SCC-14 [4]; [9]): 6.5 ± 3.7 DSS
- drug sensitivity score (UT-SCC-14 [4]; [11]): 3.43 ± 1.8 DSS
- drug sensitivity score (UT-SCC-14 [4]; [10]): 2.23 ± 1.9 DSS
- drug sensitivity score (UT-SCC-24B [5]; [8]): 11 ± 1 DSS
- drug sensitivity score (UT-SCC-24B [5]; [12]): 10.3 ± 2.3 DSS
- drug sensitivity score (UT-SCC-24B [5]; [9]): 10.1 ± 1.1 DSS
- drug sensitivity score (UT-SCC-24B [5]; [11]): 6.67 ± 1.4 DSS
- drug sensitivity score (UT-SCC-24B [5]; [10]): 13.8 ± 0.95 DSS
- drug sensitivity score (UT-SCC-24A [6]; [8]): 20.2 ± 1.9 DSS
- drug sensitivity score (UT-SCC-24A [6]; [12]): 8.77 ± 2.7 DSS
- drug sensitivity score (UT-SCC-24A [6]; [9]): 18.9 ± 1.5 DSS
- drug sensitivity score (UT-SCC-24A [6]; [11]): 3.8 ± 1.6 DSS
- drug sensitivity score (UT-SCC-24A [6]; [10]): 18.2 ± 2.1 DSS
- maximal % inhibition of viability (UT-SCC-24A [7]; [8]): 74.7 ± 4%
- maximal % inhibition of viability (UT-SCC-24A [7]; [12]): 48.6 ± 6.4%
- maximal % inhibition of viability (UT-SCC-24A [7]; [9]): 69.5 ± 5.2%
- maximal % inhibition of viability (UT-SCC-24A [7]; [11]): 33.1 ± 9.5%
- maximal % inhibition of viability (UT-SCC-24A [7]; [10]): 62.4 ± 10%
